This assay deals with human LPA1 receptor (Homo sapiens (Human), UniProt Q92633). The assay can be described thus: Beta-arrestin recruitment assay to determine IC50 values for human LPAR1. It is filed as cell-based. Particulars: antagonist mode, Tango EDG2-bla U2OS cells, LPA 18:1 500 nM final. Put shortly:
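Antagonist IC50 = concentration giving 50% inhibition of maximal LPA response. Read-out is beta-lactamase reporter activity after arrestin-protease recruitment in U2OS cells bearing LPA1-TEV-Gal4-VP16 construct; cells pre-incubated 20 h, 37 °C, 5% CO2.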
(Recruitment of arrestin is a read-out of receptor activation apart from second messengers.)

From patent publication US12344597B2, “Alkoxy-substituted pyridinyl derivatives as LPA1 receptor antagonists and their use in the treatment of fibrosis” (IDORSIA PHARMACEUTICALS LTD, priority 2018, dated 2025) come the findings set out here.

Molecules are shown by their SMILES.

In general, IC50 refers to the midpoint of a concentration-inhibition curve.

human LPA1 receptor, sequence (Q92633 whole entry, the tested form may be a part): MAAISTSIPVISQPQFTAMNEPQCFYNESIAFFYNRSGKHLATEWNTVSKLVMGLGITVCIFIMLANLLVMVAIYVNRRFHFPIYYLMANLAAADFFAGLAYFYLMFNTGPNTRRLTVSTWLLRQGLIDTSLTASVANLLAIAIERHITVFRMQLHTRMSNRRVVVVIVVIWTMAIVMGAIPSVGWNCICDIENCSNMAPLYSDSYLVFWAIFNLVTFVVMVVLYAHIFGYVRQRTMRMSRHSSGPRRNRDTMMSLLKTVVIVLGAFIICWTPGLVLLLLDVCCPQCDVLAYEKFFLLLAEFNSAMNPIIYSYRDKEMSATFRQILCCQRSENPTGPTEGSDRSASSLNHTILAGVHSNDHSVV

Turning to `CNCCN1CC(C(=O)Nc2ccc(C)nc2OC(F)F)(c2ccccc2C(C)C)C1` [Ex 11-62, N-(2-(difluoromethoxy)-6-methylpyridin-3-yl)-3-(2-isopropylphenyl)-1-(2-(methylamino)ethyl)azetidine-3-carboxamide], the IC50 is 48 nM. With `CCNCCN1CC(C(=O)Nc2ccc(C)nc2OC(F)F)(c2ccccc2C(C)C)C1` [Ex 11-63, N-(2-(difluoromethoxy)-6-methylpyridin-3-yl)-1-(2-(ethylamino)ethyl)-3-(2-isopropylphenyl)azetidine-3-carboxamide] the figure was 92 nM; with `CNC(C)(C)CN1CC(C(=O)Nc2ccc(C)nc2OC(F)F)(c2ccccc2C(C)C)C1` [Ex 11-64, N-(2-(difluoromethoxy)-6-methylpyridin-3-yl)-3-(2-isopropylphenyl)-1-(2-methyl-2-(methylamino)propyl)azetidine-3-carboxamide], 63 nM; with `Cc1ccc(NC(=O)C2(c3ccccc3C(C)C)CN(CCCC(C)(C)O)C2)c(OC(F)F)n1` [Ex 11-66, N-(2-(difluoromethoxy)-6-methylpyridin-3-yl)-1-(4-hydroxy-4-methylpentyl)-3-(2-isopropylphenyl)azetidine-3-carboxamide], 14 nM. Molecule `COC(=O)CC1(CN2CC(C(=O)Nc3ccc(C)nc3OC(F)F)(c3ccccc3C(C)C)C2)CC1` [Ex 11-67, Methyl 2-(1-((3-((2-(difluoromethoxy)-6-methylpyridin-3-yl)carbamoyl)-3-(2-isopropylphenyl)azetidin-1-yl)methyl)cyclopropyl)acetate] had an IC50 of 326 nM. With `Cc1ccc(NC(=O)C2(c3ccccc3C(C)C)CN(CC3(CC(=O)O)CC3)C2)c(OC(F)F)n1` [Ex 11-68, 2-(1-((3-((2-(difluoromethoxy)-6-methylpyridin-3-yl)carbamoyl)-3-(2-isopropylphenyl)azetidin-1-yl)methyl)cyclopropyl)acetic acid] the figure was 23 nM; with `Cc1ccc(NC(=O)C2(c3ccccc3C(C)C)CN(CCCC(C)(C)C(=O)O)C2)c(OC(F)F)n1` [Ex 11-69, 5-(3-((2-(difluoromethoxy)-6-methylpyridin-3-yl)carbamoyl)-3-(2-isopropylphenyl)azetidin-1-yl)-2,2-dimethylpentanoic acid], 15 nM; with `COC(=O)C1(CCCN2CC(C(=O)Nc3ccc(C)nc3OC(F)F)(c3ccccc3C(C)C)C2)CC1` [Ex 11-70, methyl 1-(3-(3-((2-(difluoromethoxy)-6-methylpyridin-3-yl)carbamoyl)-3-(2-isopropylphenyl)azetidin-1-yl)propyl)cyclopropane-1-carboxylate], 69 nM. Take `Cc1ccc(NC(=O)C2(c3ccccc3C(C)C)CN(CCCC3(C(=O)O)CC3)C2)c(OC(F)F)n1` [Ex 11-71, 1-(3-(3-((2-(difluoromethoxy)-6-methylpyridin-3-yl)carbamoyl)-3-(2-isopropylphenyl)azetidin-1-yl)propyl)cyclopropane-1-carboxylic acid]: 7 nM corresponded to half-maximal inhibition (IC50). With `Cc1ccc(NC(=O)C2(c3ccccc3C(C)C)CN(CCC3(C(=O)O)CC3)C2)c(OC(F)F)n1` [Ex 11-72, 1-(2-(3-((2-(difluoromethoxy)-6-methylpyridin-3-yl)carbamoyl)-3-(2-isopropylphenyl)azetidin-1-yl)ethyl)cyclopropane-1-carboxylic acid] the figure was 52 nM; with `Cc1ccc(NC(=O)C2(c3ccccc3C(C)C)CN(CCC3(C(=O)O)CCC3)C2)c(OC(F)F)n1` [Ex 11-73, 1-(2-(3-((2-(difluoromethoxy)-6-methylpyridin-3-yl)carbamoyl)-3-(2-isopropylphenyl)azetidin-1-yl)ethyl)cyclobutane-1-carboxylic acid], 46 nM; with `CCOC(=O)COCCN1CC(C(=O)Nc2ccc(C)nc2OC(F)F)(c2ccccc2C(C)C)C1` [Ex 11-74, ethyl 2-(2-(3-((2-(difluoromethoxy)-6-methylpyridin-3-yl)carbamoyl)-3-(2-isopropylphenyl)azetidin-1-yl)ethoxy)acetate], 28 nM. With `Cc1ccc(NC(=O)C2(c3ccccc3C(C)C)CN(CCOCC(=O)O)C2)c(OC(F)F)n1` [Ex 11-75, 2-(2-(3-((2-(difluoromethoxy)-6-methylpyridin-3-yl)carbamoyl)-3-(2-isopropylphenyl)azetidin-1-yl)ethoxy)acetic acid] the figure was 29 nM. Turning to `Cc1ccc(NC(=O)C2(c3ccccc3C(C)C)CN(CCC3(C(=O)O)CCOC3)C2)c(OC(F)F)n1` (stereo not shown) [Ex 11-76, 3-(2-(3-((2-(difluoromethoxy)-6-methylpyridin-3-yl)carbamoyl)-3-(2-isopropylphenyl)azetidin-1-yl)ethyl)tetrahydrofuran-3-carboxylic acid], the IC50 amounted to 18 nM. With `Cc1ccc(NC(=O)C2(c3ccccc3C(C)C)CN(CCN(C)C)C2)c(OC(F)F)n1` [Ex 11-78, N-(2-(difluoromethoxy)-6-methylpyridin-3-yl)-1-(2-(dimethylamino)ethyl)-3-(2-isopropylphenyl)azetidine-3-carboxamide] the figure was 191 nM; with `CCOC(=O)CNCCN1CC(C(=O)Nc2ccc(C)nc2OC(F)F)(c2ccccc2C(C)C)C1` [Ex 11-79, Ethyl (2-(3-((2-(difluoromethoxy)-6-methylpyridin-3-yl)carbamoyl)-3-(2-isopropylphenyl)azetidin-1-yl)ethyl)glycinate], 19 nM; with `Cc1ccc(NC(=O)C2(c3ccccc3C(C)C)CN(CCNCC(=O)O)C2)c(OC(F)F)n1` [Ex 11-80, (2-(3-((2-(difluoromethoxy)-6-methylpyridin-3-yl)carbamoyl)-3-(2-isopropylphenyl)azetidin-1-yl)ethyl)glycine], 297 nM. Consider `CCOC(=O)CN(C)CCN1CC(C(=O)Nc2ccc(C)nc2OC(F)F)(c2ccccc2C(C)C)C1` [Ex 11-81, Ethyl N-(2-(3-((2-(difluoromethoxy)-6-methylpyridin-3-yl)carbamoyl)-3-(2-isopropylphenyl)azetidin-1-yl)ethyl)-N-methylglycinate], for which half-maximal inhibition (IC50) required 88 nM.

Consider `Cc1ccc(NC(=O)C2(c3ccccc3C(C)C)CN(CCN(C)CC(=O)O)C2)c(OC(F)F)n1` [Ex 11-82, N-(2-(3-((2-(difluoromethoxy)-6-methylpyridin-3-yl)carbamoyl)-3-(2-isopropylphenyl)azetidin-1-yl)ethyl)-N-methylglycine], for which the half-maximal inhibitory concentration (IC50) was 193 nM.

In turn, `Cc1ccc(NC(=O)C2(c3ccccc3C(C)C)CN(C[C@@H](O)CN)C2)c(OC(F)F)n1` [Ex 11-83, (S)-1-(3-amino-2-hydroxypropyl)-N-(2-(difluoromethoxy)-6-methylpyridin-3-yl)-3-(2-isopropylphenyl)azetidine-3-carboxamide] came in with an IC50 of 20 nM. In the case of `CNC[C@H](O)CN1CC(C(=O)Nc2ccc(C)nc2OC(F)F)(c2ccccc2C(C)C)C1` [Ex 11-84, (S)-N-(2-(difluoromethoxy)-6-methylpyridin-3-yl)-1-(2-hydroxy-3-(methylamino)propyl)-3-(2-isopropylphenyl)azetidine-3-carboxamide] it was 45 nM. As for `Cc1ccc(NC(=O)C2(c3ccccc3C(C)C)CN(C[C@@H](O)CN(C)C)C2)c(OC(F)F)n1` [Ex 11-85, (S)-N-(2-(difluoromethoxy)-6-methylpyridin-3-yl)-1-(3-(dimethylamino)-2-hydroxypropyl)-3-(2-isopropylphenyl)azetidine-3-carboxamide], the IC50 stood at 191 nM.
